# Assays:
# Test in all cases: normalised viability (% of control), CellTiter-Blue; higher = more viable cells (100 = DMSO, 0 = benzethonium chloride kill control)
# Conditions in all cases: incubation time: 72 h
# MDA-MB-436 = test system: MDA-MB-436
# Experimental: (§1)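 DSRT, CellTiter-Blue viability, 72 h incubation. Signal is normalised to DMSO and benzethonium chloride controls. Value is the normalised response at dose 1.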
# CAL-148 = test system: CAL-148
# Experimental: as §1
# MDA-MB-468 = test system: MDA-MB-468
# Experimental: as §1
# CAL-85-1 = test system: CAL-85-1
# Experimental: as §1
# HDQ-P1 = test system: HDQ-P1
# Experimental: as §1
# CAL-51 = test system: CAL-51
# Experimental: as §1
# MDA-MB-231 = test system: MDA-MB-231
# Experimental: as §1
# CAL-120 = test system: CAL-120
# Experimental: as §1
# DU-4475 = test system: DU-4475
# Experimental: as §1
# HCC1143 = test system: HCC1143
# Experimental: as §1
# HCC1599 = test system: HCC1599
# Experimental: as §1
# HCC1937 = test system: HCC1937
# Experimental: as §1
# BT-549 = test system: BT-549
# Experimental: as §1
# MDA-MB-453 = test system: MDA-MB-453
# Experimental: as §1
# BT-474 = test system: BT-474
# Experimental: as §1
# Hs578T = test system: Hs578T
# Experimental: as §1
# MFM-223 = test system: MFM-223
# Experimental: as §1
# SK-BR-3 = test system: SK-BR-3
# Experimental: as §1
Structure (SMILES),normalised viability (MDA-MB-436),normalised viability (CAL-148),normalised viability (MDA-MB-468),normalised viability (CAL-85-1),normalised viability (HDQ-P1),normalised viability (CAL-51),normalised viability (MDA-MB-231),normalised viability (CAL-120),normalised viability (DU-4475),normalised viability (HCC1143),normalised viability (HCC1599),normalised viability (HCC1937),normalised viability (BT-549),normalised viability (MDA-MB-453),normalised viability (BT-474),normalised viability (Hs578T),normalised viability (MFM-223),normalised viability (SK-BR-3)
c1ccc(C2CN3CCSC3=N2)cc1 (centres undefined) [Tetramisole] (1 nM),102%,117%,112%,96.5%,126%,91.6%,99.2%,118%,83%,107%,95.3%,94.3%,97.8%,106%,80.2%,110%,98.5%,116%
CCCC(CCC)C(=O)O [Valproic acid] (1 nM),89.9%,103%,102%,95.3%,119%,99.8%,97.7%,105%,109%,99.1%,83.6%,115%,98.6%,108%,99%,130%,104%,103%
O=P(O)(NCCCl)NCCCl [Ifosfamide mustard] (1 nM),110%,111%,101%,85.5%,88.6%,108%,101%,82.2%,106%,97.4%,109%,92.3%,102%,109%,113%,116%,94.9%,91.8%

# — the supplement of paper PMC4862054
